Values quoted from earlier work in patent publication US12280067B2 (Phenolics, LLC, priority 2019, dated 2025).

Legend:
[1] = oral, 6-week period, versus creatine monohydrate
[2] = rats, injected intravenously
Caco-2 monolayers = conditions: Dash et al. 2001

| Permeability via Caco-2 monolayers (Caco-2 monolayers) | Compound | Effectiveness in achieving lean body mass, desired body weight and improved strength [1] | ATP levels in red blood cells [2] | Bio-transformation and elimination in the body [2] |
| --- | --- | --- | --- | --- |
| – | CN(CC(=O)O)C(=N)NP(=O)(O)O [phosphocreatine, N-Methyl-N-(phosphono-carbamimidoyl)glycine] | as effective as creatine monohydrate | significant elevation | very rapidly |
| quite low | CN(CC(=O)O)C(=N)N [creatine] | – | – | – |
